These results are taken from patent US20250099407A1, “2-AMINO BENZOPHENONE DERIVATIVES FOR TARGETED FERROPTOSIS INDUCTION IN CANCER THERAPY” (INDIAN INSTITUTE OF TECHNOLOGY KANPUR, priority 2023, published 2025).

For test [1], the system named is 22Rv1. Briefly: Cell viability, CellTiter-Glo assay, 22Rv1. It is filed as cell-based. On the procedure: (§1) The viability of screened cancer cells was recorded using a luminescence-based CellTiter-Glo® assay for the ATP quantification. The screening concentration of the molecule ranged from 100/10 μM to 45/4.5 nM with an 8-point-3-fold dilution series in DMEM media (>0.1% DMSO as control). Each experiment was conducted in more than two biological replicates with three technical replicates. The error bar is a representation of standard deviation among the technical replicates.
(§2) The viability of screened cancer cells was recorded using a luminescence-based CellTiter-Glo® assay for the ATP quantification. The screening concentration of IITK3002 ranged from 10 μM to 4.5 nM with an 8-point-3-fold dilution series in DMEM media (>0.1% DMSO as control). Each experiment was conducted in more than two biological replicates with three technical replicates. The error bar is a representation of standard deviation among the technical replicates.
(§3) a. […] In parallel, we have also synthesized the bromoacetamide (IITK3002) version of the lead molecules which is slightly more reactive with thiol nucleophiles when compared to chlorooacetamide warheads as depicted in FIG. 13. […] In addition, we also evaluated the molecules' antiproliferative potency against a panel of twelve different cancer phenotypes. The set of cancer cell lines included liver, breast, colon, myeloma, bone, blood, skin, brain and prostate lineages (FIG. 2, 3, Table 1).

Test [2] has as its system U2OS. Briefly: Cell viability, CellTiter-Glo assay, U2OS. It is filed as cell-based. As to the method: as §1, §2, §3
On the technique in general: ATP-based viability assays read luminescence as a measure of living cells.

In test [3] the test system is Huh-7 cells. Briefly: Cell viability, luminescence-based CellTiter-Glo assay, Huh-7 cells. In a few lines:
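ATP-based CellTiter-Glo luminescence in Huh-7 cells in DMEM, with DMSO (>0.1%) as control. Single-point screens used 10 μM compound with or without Fer-1 (10 μM); dose responses used 8-point 3-fold dilutions from 100/10 μM to 45/4.5 nM. More than two biological replicates with three technical replicates each.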

The mark [4] stands for this setting: Homo sapiens, 22Rv1, 22Rv1, cell viability.
Setting [5] is: Homo sapiens, Huh-7, Huh-7 cells, cell viability, read-out: EC50 Huh-7.
The mark [6] stands for this setting: Huh-7 cells, cell viability, read-out: EC50 Huh-7.
Setting [7] is: Homo sapiens, Huh-7, Huh-7 cells, antiproliferative activity, read-out: EC50 in Huh-7 cells.

pEC50: −log10 of the molar value. Where two headings read alike, the source gives them in different places.

As to `CN(C(=O)CCl)c1ccccc1C(=O)c1ccccc1` [IITK3001, N-(2-benzoylphenyl)-2-chloro-N-methylacetamide], the negative-log EC50 (pEC50) in test [1] (22Rv1, cell viability) is 6.82; in test [1] (setting [4]) it was 6.83; in test [2] it was 6.46; in test [2] (Homo sapiens) it was 6.45; in test [3] (setting [5]), 6.63; in test [3] (setting [6]), 6.63. The “screening of electrophilic small molecules, viability of Huh-7 cells” value in test [3] (10 μM with or without Fer-1 (10 μM)) is given as “potent inhibitors of Huh-7 cells”.

For the compound `CN(C(=O)CBr)c1ccccc1C(=O)c1ccccc1` [IITK3002, N-(2-benzoylphenyl)-2-bromo-N-methylacetamide], the pEC50 was 7.40 in test [1] (setting [4]); 6.89 in test [2]; 6.88 in test [2] (Homo sapiens); 7.52 in test [3] (setting [7]); 7.49 in test [3] (setting [5]); 7.50 in test [3] (setting [6]).

As for `C#CCN(C(=O)CCl)c1ccccc1C(=O)c1ccccc1` [IITK3003, N-(2-benzoylphenyl)-2-chloro-N-(prop-2-yn-1-yl)acetamide], the pEC50 is 6.38 in test [1] (setting [4]); 5.89 in test [2] (Homo sapiens); 7.36 in test [3] (setting [7]); 7.36 in test [3] (setting [5]); 7.22 in test [3] (Huh-7 cells, antiproliferative activity, read-out: EC50 in Huh-7 cells).

By pEC50 is commonly meant −log10 of the EC50, conventionally taken in molar units.
